These results are taken from the RepoRT retention time repository.

The series can be described thus: A: acetonitrile + 0.1% formic acid + 10 mM ammonium formate; B: 5% water + 95% acetonitrile + 0.1% formic acid + 10 mM ammonium formate; gradient (min/%B) 0/10 2/10 22/100 27/100 27.1/10. The conditions noted are these: stereoisomer not certain.

In the case of `CC(=O)NC(CCCCN)C(=O)O` [N-alpha-Acetyl-L-lysine], the LC retention time is 6.17 min.

For `NC(=O)NC(NC(N)=O)C(=O)O` [Allantoic acid], the LC retention time worked out at 6.54 min.

On to `COc1ccccc1OCCNCC(O)COc1cccc2[nH]c3ccccc3c12` (configuration not stated) [Carvedilol], for which the LC retention time amounted to 1.03 min.

On to `OCC1OC(OCC2OC(O)C(O)C(O)C2O)C(O)C(O)C1O` (configuration not stated) [Melibiose], for which the LC retention time is 7.08 min.

As to `N[C@@H](CCO)C(=O)O` [L-Homoserine], the LC retention time turned out to be 6.32 min.

Turning to `CN1C(=O)CCC1c1cccnc1` [(S)-Cotinine], the LC retention time turned out to be 0.622 min.

In the case of `NC(=O)c1cccnc1` [Niacinamide], the LC retention time is 0.678 min.

`O=C(O)CN(CCO)CCO` [Bicine]: the LC retention time is 6.2 min.

`NCC(N)C(=O)O` (racemic) [DL-2,3-Diaminopropionic acid]: the LC retention time worked out at 7.79 min.

For `O=C(O)c1cccnc1` [Nicotinic acid], the LC retention time was determined as 2.44 min.

As to `CCCOC(=O)c1cc(O)c(O)c(O)c1` [Propyl gallate], the LC retention time is 0.478 min.

Consider `CNCC(O)c1ccc(O)cc1` (configuration not stated) [Synephrine], for which the LC retention time came out at 3.2 min.

In the case of `O=C(O)c1ccccc1C(=O)O` [Phthalic acid], the LC retention time turned out to be 0.963 min.

As to `CC=C(C)C(=O)NCC(=O)O` [N-Tiglylglycine], the LC retention time is 1.97 min.

For `COc1ccc2c(c1OC)=CN1CCc3cc4c(cc3C1C=2)OCO4` (configuration not stated) [Berberine], the LC retention time is 0.872 min.

Take `COc1cc(C=CC(=O)CC(=O)C=Cc2ccc(O)c(OC)c2)ccc1O` [Curcumin]: the LC retention time was found to be 0.431 min.

Consider `CN(C)CCOC(c1ccccc1)c1ccccc1` [Diphenhydramine], for which the LC retention time turned out to be 0.944 min.

As for `C=C(C)C1CCC2=CC(=O)CC(C)C2(C)C1` (single isomer, unassigned; (+)) [(+)-Nootkatone], the LC retention time was found to be 0.417 min.

With `CN(C)CCCC1(c2ccc(F)cc2)OCc2cc(C#N)ccc21` (configuration not stated) [Citalopram], the LC retention time was 0.991 min.

Turning to `O=c1c(O)c(-c2ccc(O)c(O)c2)oc2cc(O)cc(O)c12` [Quercetin], the LC retention time was 0.592 min.

Consider `NCC(O)c1ccc(O)cc1` (configuration not stated) [Octopamine], for which the LC retention time came to 3.85 min.

With `Nc1ccc(O)c(C(=O)O)c1` [5-Aminosalicylic acid], the LC retention time is 1.82 min.

As for `N[C@@H](CSSC[C@H](N)C(=O)O)C(=O)O` [L-Cystine], the LC retention time came to 8.16 min.

As for `O=c1cc(-c2ccccc2)oc2ccccc12` [Flavone], the LC retention time is 0.425 min.

For `N[C@@H](Cc1ccc(O)c([N+](=O)[O-])c1)C(=O)O` [3-Nitro-L- tyrosine], the LC retention time came to 4.76 min.

Consider `CCOC(=O)CCC(=O)OCC` [Diethyl succinate], for which the LC retention time stood at 0.425 min.

On to `Nc1ncnc2c1ncn2C1OC2COP(=O)(O)OC2C1O` (configuration not stated) [Adenosine cyclophosphate], for which the LC retention time came out at 5.66 min.

In the case of `NC(CCCC(=O)O)C(=O)O` (configuration not stated) [Aminoadipic acid], the LC retention time is 6.5 min.

With `OC[C@H]1O[C@@H](O[C@H]2[C@H](O)[C@@H](O)[C@H](O)O[C@@H]2CO)[C@H](O)[C@@H](O)[C@H]1O` [beta-Lactose], the LC retention time is 6.75 min.

Turning to `CNCCC(Oc1ccccc1C)c1ccccc1` (configuration not stated) [Atomoxetine], the LC retention time worked out at 1.02 min.

`O=c1cc(-c2ccc(O)c(O)c2)oc2cc(O)cc(O)c12` [Luteolin]: the LC retention time worked out at 0.593 min.

As for `CCN(CC)c1ccc2c(-c3ccccc3C(=O)[O-])c3ccc(=[N+](CC)CC)cc-3oc2c1` [Rhodamine B], the LC retention time amounted to 0.776 min.

With `CC12CC3CC(C)(C1)CC(N)(C3)C2` [Memantine], the LC retention time worked out at 1.94 min.

With `CC(=O)c1cnccn1` [2-Acetylpyrazine], the LC retention time is 0.441 min.

With `CC(=O)N[C@@H](CS)C(=O)O` [N-Acetyl-L-cysteine], the LC retention time is 3.49 min.

With `Cn1cnc2[nH]c(=O)[nH]c(=O)c21` [7-Methylxanthine], the LC retention time is 1.37 min.

As to `Cn1c(=O)c2c(ncn2C)n(C)c1=O` [Caffeine], the LC retention time amounted to 0.477 min.

In the case of `CCc1ccc(CCOc2ccc(CC3SC(=O)NC3=O)cc2)nc1` (configuration not stated) [Pioglitazone], the LC retention time stood at 0.47 min.

`CCCCc1oc2ccccc2c1C(=O)c1cc(I)c(OCCN(CC)CC)c(I)c1` [Amiodarone]: the LC retention time was determined as 0.756 min.

Consider `O=C(CCc1ccc(O)cc1)c1c(O)cc(O)cc1OC1OC(CO)C(O)C(O)C1O` (configuration not stated) [Phloridzin], for which the LC retention time was 1.25 min.

Consider `CC(=O)NC(CCC(=O)O)C(=O)O` (configuration not stated) [N-Acetylglutamic acid], for which the LC retention time amounted to 5.85 min.

Regarding `CN(CC(=O)O)C(N)=NP(=O)(O)O` [Creatine phosphate], the LC retention time turned out to be 7.86 min.

For the compound `CN(C)CCCN1c2ccccc2CCc2ccc(Cl)cc21` [Clomipramine], the LC retention time came to 0.942 min.

`NC(CCC(=O)NC(CSSCC(NC(=O)CCC(N)C(=O)O)C(=O)NCC(=O)O)C(=O)NCC(=O)O)C(=O)O` [L-Glutathione oxidized]: the LC retention time came to 8.69 min.

Consider `CCc1cccc2c3c([nH]c12)C(CC)(CC(=O)O)OCC3` (configuration not stated) [Etodolac], for which the LC retention time worked out at 0.453 min.

Regarding `NC(=O)NCCC(=O)O` [3-Ureidopropionic acid], the LC retention time amounted to 4.57 min.

Regarding `NCCc1c[nH]c2ccc(O)cc12` [Serotonin], the LC retention time is 3.29 min.

`CC(=O)NC1C(O)CC(O)(C(=O)O)OC1C(O)C(O)CO` (configuration not stated) [N-Acetylneuraminic acid]: the LC retention time came out at 6.84 min.

`Nc1nc2c(ncn2COC(CO)CO)c(=O)[nH]1` [Ganciclovir]: the LC retention time came to 4.73 min.

Regarding `O=C(O)CCCCCCC(=O)O` [Suberic acid], the LC retention time stood at 0.712 min.

`Cc1noc(NS(=O)(=O)c2ccc(N)cc2)c1C` [Sulfisoxazole]: the LC retention time stood at 0.449 min.

As to `Cc1ccc(C(C)C)cc2c(C)ccc1-2` [Guaiazulene], the LC retention time was determined as 0.402 min.

For the compound `CN1CC(=O)NC1=N` [Creatinine], the LC retention time was found to be 2.58 min.

As for `O=C(O)CCCCCCCCCCCC(=O)O` [1,11-Undecanedicarboxylic acid], the LC retention time was 0.554 min.

For `N[C@H]1C(O)O[C@H](CO)[C@@H](O)[C@@H]1O` (stereo partly drawn) [D-(+)-Glucosamine], the LC retention time was 6.72 min.

`CCCCCC(=O)NCC(=O)O` [Hexanoyl Glycine]: the LC retention time was 1.27 min.

`NC(CSCC(=O)O)C(=O)O` (configuration not stated) [Carbocysteine]: the LC retention time was found to be 6.96 min.

As to `CC(CCC(=O)NCC(=O)O)C1CCC2C3CCC4CC(O)CCC4(C)C3CC(O)C12C` (configuration not stated) [Glycodeoxycholic acid], the LC retention time stood at 2.78 min.

As for `O=C(O)c1ccccn1` [2-Picolinic acid], the LC retention time amounted to 3.08 min.

As to `CCCC(NC(C)C(=O)N1C(C(=O)O)CC2CCCCC21)C(=O)OCC` (configuration not stated) [Perindopril erbumine], the LC retention time was 0.553 min.

For `C[N+](C)(C)CC(=O)[O-]` [Betaine], the LC retention time turned out to be 5.7 min.

Regarding `CNCCc1ccc(O)cc1` [N-Methyltyramine], the LC retention time was found to be 2.53 min.
